From patent US11942223B1, “Systems and methods for rapid gene set enrichment analysis” (Immuneering Corporation, priority 2018, dated 2024) come the findings set out here.

Series [1] concerns MDA-MB-231 cells. Briefly: Transwell ECM-based invasion assay, MDA-MB-231. The conditions noted are these: for inhibition of tumor cell invasion: MDA-MB-231, three GSK3 inhibitors, FIG. 7B. The class given is cell-based, human. The procedure: To experimentally test the in silico predictions made by Cosiner™ and to pursue an inhibitor of metastasis, an in vitro ECM-based invasion assay was performed. An invasion assay is an in vitro proxy for the process of cells migrating and breaking through the extracellular matrix as would occur in the body during metastasis. All three GSK3A/GSK3B inhibitors tested were effective at inhibiting the invasion of the human triple negative breast cancer cell model MDA-MB-231 cells (FIG. 7B). […] Cell viability was determined at 10 μM by CellTiter-Glo® (CTG). […] At 10 μM doses, off-target effects can confound pharmacologic interpretations not to mention that it is unlikely to be a physiologically feasible dose for mice or humans. The viability at for each of the line as tested with each of these drugs was 76.4% for CHIR-99021 and 80.5% for 6-BIO 10 μM of drug by CTG.
(§1) Culture medium was removed when cells reached 80% confluence. Cultures were gently rinsed with PBS to remove all the remaining serum. Serum-free medium was added to the cultures and they were incubated overnight at 37° C. 5% CO2.
(§2) 786-O. NCI-H460, NCI-H226, MDA-MB-231 and DU-145 cells were tested in transwells with 3 μm pores. HCT-116, PC-3, MDA-MB-453 and COLO-205 cells were tested in transwells with 8 μm pores.
(§3) First, the Matrigel® was thawed in an ice bath in a refrigerator (4° C.) overnight. Matrigel® was then diluted into serum-free, cold cell culture media (1:8 dilution). 20 μL of diluted Matrigel®) was added into each well of BD Falcon™ Multiwell 96-well cell culture inserts. Transwell inserts were incubated at 37° C., for at least 4 to 5 hours for gelling. Before use, the transwells were rehydrated by adding 100 μL PBS to the insert and incubated at 37° C., in ambient air for 2 hours.
Cells were harvested using Trypsin and washed once with serum free medium. Cells were resuspended with serum-free medium. The 786-O cell density was adjusted to 2×10^5 cells/mL; the NCI-H460 and NCI-H226 cell density was adjusted to 5×10^6 cells/mL; the MDA-MB-231 and DU-145 cell density was adjusted to 1×10^6 cells/mL; the HCT-116 cell density was adjusted to 5×10^6 cells/mL; the PC-3 cell density to 1×10^6 cell/mL; the MDA-MB-453 cell density was adjusted to 5×10^5 cells/mL; and the COLO-205 cell density was adjusted to 2×10^6 cells/mL.
Cells were pre-treated with compounds, which were dissolved in DMSO and diluted to the desired concentration in culture medium. The pretreatment was performed in Ultra-low attachment multiwell plates. 90 μL cells and 10 μL compound solution were mixed in each well of the plate. The plate was covered with a lid and incubated for 60 minutes. 50 μL of cells was seeded onto each top insert, which was pre-coated with 1:8 diluted Matrigel®. 180 μL of warm (37° C.) culture medium containing 10% FBS was added to the lower chamber of the transwell plate. 200 μL serum-free medium and 20 μL of compound dilution was added to the indicated lower chamber as the negative control. The 96-Multiwell Insert system was transferred to the incubator for 16 hours at 37° C., and 5% CO2. Next, the insert was transferred to a new plate. The lower chambers were centrifuged at 3000 rpm for 5 minutes and then washed twice with PBS.
The insert was transferred back to the lower chamber and 200 μL of the DiTC12(3) fluorescent dye solution was added. The final concentration of DiIC12(3) was 5 μg/mL. Plates were incubated for 30 minutes at 37° C., and 5% CO2. The plates were then washed with PBS twice. The invaded/migrated cells were monitored by reading fluorescence at 530/590 nm on a PerkinElmer EnSpire™ plate reader.
Percent inhibition for compound was calculated using Formula 6.
The positive control was DMSO treated and had medium with 10% FBS (average of 3 wells per cell line) in receiver well. The negative control was DMSO treated with no FBS in the receiver well (average of 3 wells per cell line). […]

In series [2] the test system is MDA-MB-231 cells. Briefly: CellTiter-Glo viability, MDA-MB-231. Type of series: cell-based, human. The settings on record: MDA-MB-231, 10 μM of drug. As to the method: (§4) Viability was determined at the maximum drug concentration measured in a given experiment via CellTiter-Glo® (CTG) per manufacturers recommendations: https://www.promega.com/-/media/files/resources/protocols/technical-bulletins/0/celltiter-glo-luminescent-cell-viability-assay-protocol.pdf?la=en.

Series [3] can be described thus: CellTiter-Glo viability, A549. Type of series: cell-based. The settings on record: human, A549 cells; A549, 600 nM; read-out: cell viability by CellTiter-Glo. The procedure: as §4
A general note: Cellular ATP, detected with luciferase, serves as a proxy for viable cell number.

Series [4] concerns DU-145 (prostate cancer) cells. Briefly: Transwell invasion assay, DU-145. The class given is cell-based. The conditions noted are these: DU-145, cell line panel, FIG. 9A. The procedure:
as §1, §2, §3
(§5) Cells were harvested using Trypsin and washed once with serum free medium. Cells were resuspended with serum-free medium. […]
(§6) The insert was transferred back to the lower chamber and 200 μL of the DiTC12(3) fluorescent dye solution was added. […] The invaded/migrated cells were monitored by reading fluorescence at 530/590 nm on a PerkinElmer EnSpire™ plate reader.
(§7) Percent inhibition for compound was calculated using Formula 6. […]

For series [5], the system named is HCT-116 (colon cancer) cells. The series is described as follows: Transwell invasion assay, HCT-116. The conditions noted are these: HCT-116, cell line panel, FIG. 9B; low baseline invasiveness. The class given is cell-based. As to the method:
as §1, §2, §3, §5, §6, §7

Series [6] concerns NCI-H460 (lung cancer) cells. The series is described as follows: Transwell invasion assay, NCI-H460. Type of series: cell-based. The settings on record: NCI-H460, cell line panel, FIG. 9A. The procedure: as §1, §2, §3, §5, §6, §7
The test system of series [7] is NCI-H226 (lung cancer) cells. The series is described as follows: Transwell invasion assay, NCI-H226. Type of series: cell-based. The conditions noted are these: NCI-H226, cell line panel, FIG. 9A. As to the method: as §1, §2, §3, §5, §6, §7
Series [8] in a line: CellTiter-Glo viability, DU-145. Type of series: cell-based. The conditions noted are these: human, DU-145 cells; DU-145, 600 nM; read-out: cell viability by CellTiter-Glo. As to the method: as §4
Series [9] deals with COLO-205 (colon cancer) cells. Briefly: Transwell invasion assay, COLO-205. Type of series: cell-based. The conditions noted are these: COLO-205, cell line panel, FIG. 9B. As to the method:
as §1, §2, §3, §5, §6, §7

A short description of series [10]: CellTiter-Glo viability, 786-O. Type of series: cell-based. The conditions noted are these: human, 786-O cells, 600 nM, assay threshold 80%, read-out: cell viability by CellTiter-Glo. As to the method: as §4
A short description of series [11]: CellTiter-Glo viability, MDA-MB-231. Type of series: cell-based, human. The settings on record: human, MDA-MB-231 cells; for viability at 10 µM: MDA-MB-231, 10 μM of drug. The procedure:
as §4

The nature of series [12]: CellTiter-Glo viability, MDA-MB-453. The class given is cell-based. The conditions noted are these: human, MDA-MB-453 cells; MDA-MB-453, 600 nM; read-out: cell viability by CellTiter-Glo. As to the method: as §4
Series [13] concerns MDA-MB-453 (breast cancer) cells. The series is described as follows: Transwell invasion assay, MDA-MB-453. The class given is cell-based. The settings on record: MDA-MB-453, cell line panel, FIG. 9B; low baseline invasiveness. The procedure:
as §1, §2, §3, §5, §6, §7

The nature of series [14]: CellTiter-Glo viability, PC-3. Type of series: cell-based. The settings on record: human, PC-3 cells; PC3, 600 nM; read-out: cell viability by CellTiter-Glo. As to the method: as §4
Series [15] is described as follows: CellTiter-Glo viability, NCI-H460. The class given is cell-based. The conditions noted are these: human, NCI-H460 cells; NCI-H460, 600 nM; read-out: cell viability by CellTiter-Glo. As to the method: as §4
For series [16], the system named is 786-O (renal cancer) cells. The series is described as follows: Transwell invasion assay, 786-O. Type of series: cell-based. The settings on record: cell line panel, FIG. 9A. The procedure: as §1, §2, §3, §5, §6, §7
The nature of series [17]: CellTiter-Glo viability, COLO-205. The settings on record: human, COLO-205 cells; COLO-205, 600 nM; read-out: cell viability by CellTiter-Glo. Type of series: cell-based. The procedure: as §4
The test system of series [18] is PC-3 (prostate cancer) cells. Briefly: Transwell invasion assay, PC-3. Type of series: cell-based. The settings on record: PC-3, cell line panel, FIG. 9A. The procedure: as §1, §2, §3, §5, §6, §7
In another series the test system is A549 (lung cancer) cells. The series is described as follows: Transwell invasion assay, A549. The class given is cell-based. The settings on record: A549, previous experiment, FIG. 9B. As to the method: as §1, §3
Cells were pre-treated with compounds, which were dissolved in DMSO and diluted to the desired concentration in culture medium. The pretreatment was performed in Ultra-low attachment multiwell plates. 90 μL cells and 10 μL compound solution were mixed in each well of the plate. The plate was covered with a lid and incubated for 60 minutes. […]
as §6, §7

Series [19] in a line: CellTiter-Glo viability, HCT-116. Type of series: cell-based. The conditions noted are these: human, HCT-116 cells; HCT-166 (so in the source), 600 nM; read-out: cell viability by CellTiter-Glo. As to the method: as §4
The nature of series [20]: CellTiter-Glo viability, NCI-H226. The settings on record: human, NCI-H226 cells; NCI-H226, 600 nM; read-out: cell viability by CellTiter-Glo. Type of series: cell-based. The procedure: as §4
[21] abbreviates: read-out: cell viability by CellTiter-Glo.

Turning to `O=C1Nc2cc(Br)ccc2/C1=C1/Nc2ccccc2/C1=N\O` [6-BIO], the “inhibition of tumor cell invasion” value with MDA-MB-231 cells [1] is “inhibited tumor cell invasion but only at the higher dose levels tested (e.g., 1-10 μM)”. Moreover, the “cell viability by CellTiter-Glo” value in the series with MDA-MB-231 cells [2] is listed as 80.5%.
For orientation: viability means a read-out of living cells in per cent, often relative to untreated cells. On to `O=C1NC(=O)C(c2cnc3ccccn23)=C1c1cn2c3c(cc(F)cc13)CN(C(=O)N1CCCCC1)CC2` [LY-2090314], for which the viability at 0.6 µM in series [3] was 99.3%; in series [8], ~100%; in series [10] it was 83%; in series [11] (MDA-MB-231, 600 nM of drug, dose response experiment (FIG. 8), read-out: cell viability by CellTiter-Glo), 93.5%; in series [11] (MDA-MB-231, 600 nM, cell line panel experiment (FIG. 9A)), 95.5%; in series [12], ~100%. The viability at 0.6 µM is ~100% in series [14]; ~100% in series [15]; ~100% in series [17]; ~97.7% in series [19]; ~100% in series [20]. Besides, the inhibition of invasion entry in series [4] is recorded as “markedly inhibited”; in [5], “did not significantly inhibit”; in series [6] it was “markedly inhibited”; in [7], “markedly inhibited”; in the series on MDA-MB-231 cells [1] (MDA-MB-231, cell line panel, FIG. 9A, average of 6 wells) it was “markedly inhibited”; in series [9], “did not significantly inhibit”. The inhibition of invasion result in series [13] is recorded as “did not significantly inhibit”; in series [16] it was “markedly inhibited”; in series [18], “markedly inhibited”; in the series on A549 (lung cancer) cells, “did not significantly inhibit”. The IC50 in the series on MDA-MB-231 cells [1] (Homo sapiens, MDA-MB-231, dose response FIG. 8, average of 6 wells, read-out: 50% inhibition of baseline invasion) is ~5 nM. Moreover, the “dose of maximal inhibition of tumor cell invasion” value in the series on MDA-MB-231 cells [1] (MDA-MB-231, dose response FIG. 8, average of 6 wells) is “approximately 24 nM”. Further, the “inhibition of tumor cell invasion” value in the series on MDA-MB-231 cells [1] was “inhibited tumor cell invasion at all concentrations tested”. Further, in series [11] (setting [21]), the viability at 10 µM is ~100%.
Consider `Cc1c[nH]c(-c2cnc(NCCNc3ccc(C#N)cn3)nc2-c2ccc(Cl)cc2Cl)n1` [CHIR-99021], for which the “inhibition of tumor cell invasion” value in the series with MDA-MB-231 cells [1] is recorded as “inhibited tumor cell invasion but only at the higher dose levels tested (e.g., 1-10 μM)”. Moreover, the viability at 10 µM in [11] (setting [21]) amounted to 76.4%.
